According to the supplement of paper PMC10307832:

Columns and labels:
Test in all cases: relative viability (nuclei count vs DMSO), 5 days (fraction); higher = more cells survive
[1] = compound: C1COCCN1C2=NC(=NC3=C2OC4=C3C=CC=N4)C5=CC(=CC=C5)NC(=O)C6=CN=C(C=C6)N + C[C@@H](Oc1cc(-c2cnn(C3CCNCC3)c2)cnc1N)c1c(Cl)ccc(F)c1Cl [Crizotinib] (partner 1 µM)
Procedure, shortened: (§1)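 For relative viability, nuclei counts in treated wells were divided by those in vehicle wells. Lung cancer cell lines had been pin-tool dosed in 1536-well plates the day after seeding and cultured for 5 days, then fixed and stained in one step (final 0.05% Triton X-100, 1% formaldehyde, 1 ug/ml Hoechst) and imaged at 4×. Doses were one drug alone or a fixed anchor-drug dose plus five library-drug doses (not always all listed) in √10 steps, and values are duplicate-plate medians.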

[2] = compound: C1COCCN1C2=NC(=NC3=C2OC4=C3C=CC=N4)C5=CC(=CC=C5)NC(=O)C6=CN=C(C=C6)N + N=C(N)NC(=N)NCCc1ccccc1 [Phenformin] (partner 250 µM)
Procedure, shortened: as §1

[3] = compound: CN1CCC(CNc2ccc3ncc(-c4cccc(OC(F)(F)F)c4)n3n2)CC1 [SGI-1776] + Cc1nc(Nc2ncc(C(=O)Nc3c(C)cccc3Cl)s2)cc(N2CCN(CCO)CC2)n1 [Dasatinib] (partner 0.075 µM)
Procedure, shortened: as §1

[4] = compound: Nc1ccccc1NC(=O)c1ccc(CNC(=O)OCc2cccnc2)cc1 [Entinostat] + CC(C)C[C@H](NC(=O)[C@H](Cc1ccccc1)NC(=O)c1cnccn1)B(O)O [Bortezomib] (partner 0.002 µM)
Procedure, shortened: as §1

| Cell Line | relative viability ([1]; first compound 0.02 µM) | relative viability ([1]; first compound 0.06325 µM) | relative viability ([1]; first compound 0.2 µM) | relative viability ([1]; first compound 0.6325 µM) | relative viability ([1]; first compound 2 µM) | relative viability ([2]; first compound 0.02 µM) | relative viability ([2]; first compound 0.06325 µM) | relative viability ([2]; first compound 0.2 µM) | relative viability ([2]; first compound 0.6325 µM) | relative viability ([2]; first compound 2 µM) | relative viability ([3]; first compound 0.08 µM) | relative viability ([3]; first compound 0.8 µM) | relative viability ([3]; first compound 2.53 µM) | relative viability ([3]; first compound 8 µM) | relative viability ([4]; first compound 0.02 µM) | relative viability ([4]; first compound 0.06325 µM) | relative viability ([4]; first compound 0.2 µM) | relative viability ([4]; first compound 0.6325 µM) | relative viability ([4]; first compound 2 µM) |
| --- | --- | --- | --- | --- | --- | --- | --- | --- | --- | --- | --- | --- | --- | --- | --- | --- | --- | --- | --- |
| NCI-H2126 | 1.04 | 1.09 | 1.06 | 1 | 0.645 | 0.535 | 0.553 | 0.524 | 0.461 | 0.441 | 0.642 | 0.635 | 0.481 | 0.434 | 1.13 | 1.11 | 1.1 | 0.885 | 0.809 |
| NCI-H2228 | 0.489 | 0.536 | 0.364 | 0.397 | 0.291 | 0.322 | 0.392 | 0.273 | 0.233 | 0.222 | 0.581 | 0.665 | 0.416 | 0.27 | 0.815 | 0.831 | 1.05 | 0.462 | 0.204 |
| NCI-H2347 | 0.603 | 0.678 | 0.744 | 0.759 | 0.649 | 0.356 | 0.369 | 0.308 | 0.449 | 0.277 | 0.346 | 0.319 | 0.306 | 0.265 | 0.969 | 1.01 | 0.557 | 0.318 | 0.262 |
| NCI-H2405 | 0.885 | 0.864 | 0.848 | 0.821 | 0.659 | 0.373 | 0.41 | 0.37 | 0.353 | 0.338 | 0.225 | 0.195 | 0.178 | 0.166 | 1.01 | 1.04 | 0.976 | 0.916 | 0.653 |
| NCI-H3122 | 0.312 | 0.236 | 0.242 | 0.271 | 0.24 | 0.619 | 0.359 | 0.347 | 0.372 | 0.343 | 0.877 | 0.76 | 0.96 | 0.821 | 0.951 | 1.07 | 1.06 | 0.869 | 1.01 |
| PC-3 [JPC-3] | 0.961 | 1.02 | 1.02 | 1.04 | 0.64 | 0.485 | 0.491 | 0.453 | 0.469 | 0.443 | 1.1 | 0.961 | 0.977 | 0.857 | 0.853 | 0.814 | 0.824 | 0.409 | 0.508 |
| PC-14 | 1.01 | 1.07 | 0.865 | 0.784 | 0.396 | 0.478 | 0.36 | 0.397 | 0.446 | 0.268 | 0.267 | 0.256 | 0.0958 | 0.0261 | 0.833 | 0.949 | 0.909 | 0.331 | 0.128 |
| RERF-LC-KJ | 1.02 | 0.913 | 0.798 | 0.794 | 0.748 | 0.416 | 0.484 | 0.395 | 0.426 | 0.291 | 0.803 | 0.688 | 0.7 | 0.447 | 1.06 | 1.21 | 0.998 | 0.643 | 0.417 |
| SK-LU-1 | 0.947 | 0.992 | 0.915 | 1.1 | 0.502 | 0.56 | 0.488 | 0.513 | 0.567 | 0.349 | 0.171 | 0.183 | 0.169 | 0.116 | 1.34 | 1.4 | 0.988 | 0.537 | 0.305 |
| SW 1573 | 0.89 | 0.812 | 0.721 | 0.743 | 0.659 | 0.368 | 0.454 | 0.314 | 0.319 | 0.205 | 0.457 | 0.456 | 0.457 | 0.295 | 1.06 | 1.14 | 1.19 | 0.836 | 0.787 |
